Assays:
[1] = biological target: T1, NLRP3 (Homo sapiens, UniProt Q96P20); experiment: Human whole blood IL-1β release assay (LPS + nigericin, AlphaLisa); format: cell-based; design: Plate out 80 μl of whole blood containing 1 μg/ml of LPS; from tissue; host or cells: human whole blood from healthy volunteer donors; conditions: NLRP3 inhibitory activity, 1 μg/ml LPS, 3 hrs compound, nigericin 10 μM 1 hr, read-out: HWB IC50
Method: For systemic delivery, the ability to inhibit NLRP3 when the compounds are present within the bloodstream is of great importance. For this reason, the NLRP3 inhibitory activity of a number of compounds in human whole blood was investigated in accordance with the following protocol.
Human whole blood in Li-heparin tubes was obtained from healthy donors from a volunteer donor panel. • 1. Plate out 80 μl of whole blood containing 1 μg/ml of LPS in 96-well, clear bottom cell culture plate (Corning #3585) • 2. Add 10 μl compound (8 points half-log dilution with 10 μM top dose) or vehicle (DMSO 0.1% FAC) to the appropriate wells • 3. Incubate for 3 hrs at 37° C., 5% CO2 • 4. Add 10 μl nigericin (Sigma #N7143) (10 μM FAC) to all wells • 5. Incubate for 1 hr at 37° C., 5% CO2 • 6. […] IL-1β was measured according to the manufacturer protocol (Perkin Elmer-AlphaLisa IL-1 Kit AL220F-5000) • 8. IC50 data is fitted to a non-linear regression equation (log inhibitor vs response-variable slope 4-parameters)

[2] = biological target: T1, NLRP3; experiment: THP-1 cells pyroptosis assay (LPS + nigericin, resazurin readout); format: cell-based; design: Seed THP-1 cells (25,000 cells/well) containing 1.0 μg/ml LPS; host or cells: THP-1 cells; conditions: NLRP3 inhibitory activity, 1.0 μg/ml LPS, 3 hrs compound, nigericin 5 μM 1 hr
Method: THP-1 cells (ATCC #TIB-202) were grown in RPMI containing L-glutamine (Gibco #11835) supplemented with 1 mM sodium pyruvate (Sigma #S8636) and penicillin (100 units/ml)/streptomycin (0.1 mg/ml) (Sigma #P4333) in 10% Fetal Bovine Serum (FBS) (Sigma #F0804). The cells were routinely passaged and grown to confluency (˜10^6 cells/ml). On the day of the experiment, THP-1 cells were harvested and resuspended into RPMI medium (without FBS). The cells were then counted and viability (>90%) checked by Trypan blue (Sigma #T8154). Appropriate dilutions were made to give a concentration of 625,000 cells/ml. To this diluted cell solution was added LPS (Sigma #L4524) to give a […] Final Assay Concentration (FAC). 40 μl of the final preparation was aliquoted into each well of a 96-well plate. The plate thus prepared was used for compound screening.
The following method step-by-step assay was followed for compound screening. • 1. Seed THP-1 cells (25,000 cells/well) containing 1.0 μg/ml LPS in 40 μl of RPMI medium (without FBS) in 96-well, black walled, clear bottom cell culture plates coated with poly-D-lysine (VWR #734-0317) • 2. Add 5 μl compound (8 points half-log dilution, with 10 μM top dose) or vehicle (DMSO 0.1% FAC) to the appropriate wells • 3. Incubate for 3 hrs at 37° C., 5% CO2 • 4. Add 5 μl nigericin (Sigma #N7143) (FAC 5 μM) to all wells • 5. Incubate for 1 hr at 37° C., 5% CO2 • 6. At the end of the incubation period, spin plates at 300×g for 3 mins and remove supernatant • 7. Then add 50 μl of resazurin (Sigma #R7017) (FAC 100 μM resazurin in RPMI medium without FBS) and incubate plates for a further 1-2 hrs at 37° C. and 5% CO2 • 8. Plates were read in an Envision reader at Ex 560 nm and Em 590 nm • 9. IC50 data is fitted to a non-linear regression equation (log inhibitor vs response-variable slope 4-parameters)

T1 sequence (Q96P20 whole entry): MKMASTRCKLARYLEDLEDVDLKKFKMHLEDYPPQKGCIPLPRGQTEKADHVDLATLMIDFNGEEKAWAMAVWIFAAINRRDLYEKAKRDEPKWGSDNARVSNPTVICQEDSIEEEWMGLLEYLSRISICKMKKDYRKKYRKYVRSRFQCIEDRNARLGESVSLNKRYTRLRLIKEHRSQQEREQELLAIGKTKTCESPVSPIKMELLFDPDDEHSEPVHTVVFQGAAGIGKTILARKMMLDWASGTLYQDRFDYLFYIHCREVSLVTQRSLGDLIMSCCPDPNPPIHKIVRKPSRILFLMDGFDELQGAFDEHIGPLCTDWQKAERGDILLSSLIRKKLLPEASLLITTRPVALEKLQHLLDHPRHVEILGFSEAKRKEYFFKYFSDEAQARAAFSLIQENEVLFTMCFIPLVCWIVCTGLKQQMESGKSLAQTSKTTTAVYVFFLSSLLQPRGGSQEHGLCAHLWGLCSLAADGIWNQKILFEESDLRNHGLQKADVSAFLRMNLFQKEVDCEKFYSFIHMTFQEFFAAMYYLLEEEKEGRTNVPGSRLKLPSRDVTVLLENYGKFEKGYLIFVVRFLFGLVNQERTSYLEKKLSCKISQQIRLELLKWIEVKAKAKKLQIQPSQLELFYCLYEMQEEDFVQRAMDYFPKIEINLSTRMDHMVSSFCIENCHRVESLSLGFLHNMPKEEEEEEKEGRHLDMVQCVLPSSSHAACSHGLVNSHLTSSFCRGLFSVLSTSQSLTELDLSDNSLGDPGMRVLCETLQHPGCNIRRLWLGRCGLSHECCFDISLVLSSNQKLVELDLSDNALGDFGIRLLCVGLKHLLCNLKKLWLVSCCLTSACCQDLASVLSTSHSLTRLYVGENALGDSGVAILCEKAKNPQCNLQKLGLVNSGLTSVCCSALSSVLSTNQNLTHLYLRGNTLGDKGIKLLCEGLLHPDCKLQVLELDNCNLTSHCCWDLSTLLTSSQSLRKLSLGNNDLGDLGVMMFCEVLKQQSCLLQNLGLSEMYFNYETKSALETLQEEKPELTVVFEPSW

Row | SMILES | IC50 [1] [nM] | IC50 [2] [nM]
1 | CC(C)c1cccc2c1CC(=O)NS(=O)(=O)c1nn(c3ncccc13)C(C)(C)COc1cc-2ccn1 [Example 37] | 1000 to 5000 | 500 to 1000
2 | COCc1cc2c(c(C(C)C)c1F)CC(=O)NS(=O)(=O)c1cnn(c1)C(C)(C)COc1cc-2ccn1 [Example 52, 5-fluoro-6-isopropyl-4-(methoxymethyl)-16,16-dimethyl-11,11-dioxo-18-oxa-11λ^6-thia-10,14,15,20-tetrazatetracyclo[17.3.1.1^12,15.0^2,7]tetracosa-1(23),2(7),3,5, 12(24),13,19,21-octaen-9-one] |  | 100 to 500
3 | CC(C)c1c(F)c(C#N)cc2c1CC(=O)NS(=O)(=O)c1cnn(c1)C(C)(C)COc1cc-2ccn1 [Example 48, 5-fluoro-6-isopropyl-16,16-dimethyl-9,11,11-trioxo-18-oxa-11λ^6-thia-10,14,15,20-tetrazatetracyclo[17-3-1-1^12,15.0^2,7]tetracosa-1(23),2(7),3,5,12(24),13,19,21-octaene-4-carbonitrile] |  | 1000 to 5000
4 | CC(C)c1cccc2c1CC(=O)NS(=O)(=O)c1cccc(c1)C(C)(C)COc1cc-2ccn1 [Example 28] |  | 1000 to 5000
5 | CC(C)c1cc(F)cc2c1CC(=O)NS(=O)(=O)c1cnn(c1)C(C)(C)CNc1cc-2ccn1 [Example 56, 4-fluoro-6-isopropyl-16,16-dimethyl-11,11-dioxo-11λ^6-thia-10,14,15,18, 20-pentazatetracyclo[17.3.1.1^12,15.0^2,7]tetracosa-1(23),2(7),3,5,12(24),13,19,21-octaen-9-one] |  | ≤ 100
6 | CC(C)c1c(F)c(OC(F)F)cc2c1CC(=O)NS(=O)(=O)c1cnn(c1)C(C)(C)COc1cc-2ccn1 [Example 49, 4-(difluoromethoxy)-5-fluoro-6-isopropyl-16,16-dimethyl-11,11-dioxo-18-oxa-11λ^6-thia-10,14,15,20-tetrazatetracyclo[17.3.1.1^12,15.0^2,7]tetracosa-1(23),2(7),3,5, 12(24),13,19,21-octaen-9-one] |  | 500 to 1000
7 | CC(C)c1cc(F)cc2c1CC(=O)NS(=O)(=O)c1cc(cc(C3CC3)c1)CCOc1cc-2ccn1 [Example 30, 14-cyclopropyl-4-fluoro-6-(propan-2-yl)-19-oxa-11λ^6-thia-10,21-diazatetracyclo[18.3.1.11^2,16.0^2,7]pentacosa-1(23),2(7),3,5,12(25),13,15,20(24),21-nonaene-9,11,11-trione] |  | 500 to 1000
8 | CC(C)c1cc(F)cc2c1CC(=O)NS(=O)(=O)c1nn(cc1C(=O)N(C)C)C(C)(C)COc1cc-2ccn1 [Example 50, 4-fluoro-6-isopropyl-N,N,16,16-tetramethyl-9,11,11-trioxo-18-oxa-11λ^6-thia-10,15,20,24-tetrazatetracyclo[17.3.1.1^12,15.0^2,7]tetracosa-1(23),2(7),3,5,12(24),13,19, 21-octaene-13-carboxamide] |  | 5000 to 10000
9 | CC(C)c1cc(C#N)cc2c1CC(=O)NS(=O)(=O)c1cnn(c1)C(C)(C)COc1cc-2ccn1 [Example 46, 6-isopropyl-16,16-dimethyl-9,11,11-trioxo-18-oxa-11λ^6-thia-10,14,15,20-tetrazatetra-cyclo[17.3.1.1^12,15.0^2,7]tetracosa-1(23),2(7),3,5,12(24),13,19,21-octaene-4-carbonitrile] |  | 1000 to 5000
10 | O=C1Cc2c(ccc3c2CCC3)-c2ccnc(c2)OCCc2cccc(c2)S(=O)(=O)N1 [Example 9] |  | 5000 to 10000
11 | CC(C)c1cccc2c1CC(=O)NS(=O)(=O)c1ccnn1CCCCCOc1cc-2ccn1 [Example 43, 6-(propan-2-yl)-22-oxa-11λ^6-thia-10,15,16,24-tetraazatetracyclo-[21.3.1.0^2,7.0^12,16]heptacosa-1(26),2(7),3,5,12,14,23(27),24-octaene-9,11,11-trione] |  | 1000 to 5000
12 | COCc1cc2c(c(C(C)C)c1)CC(=O)NS(=O)(=O)c1cnn(c1)C(C)(C)COc1cc-2ccn1 [Example 51, 6-isopropyl-4-(methoxymethyl)-16,16-dimethyl-11,11-dioxo-18-oxa-11λ^6-thia-10,14,15,20-tetrazatetracyclo[17-3-1-1^12,15.0^2,7]tetracosa-1(23),2(7),3,5,12(24),13,19, 21-octaen-9-one] |  | ≤ 100
13 | CC(C)c1cc(OC(F)F)cc2c1CC(=O)NS(=O)(=O)c1cnn(c1)C(C)(C)COc1cc-2ccn1 [Example 47, 4-(difluoromethoxy)-6-isopropyl-16,16-dimethyl-11,11-dioxo-18-oxa-11λ^6-thia-10,14,15,20-tetrazatetracyclo[17-3-1-1^12,15.0^2,7]tetracosa-1(23),2(7),3,5,12(24), 13,19,21-octaen-9-one] |  | 100 to 500
14 | CC(C)c1cc(F)cc2c1CC(=O)NS(=O)(=O)c1cccnc1OCCCOc1cc-2ccn1 [Example 18] |  | 1000 to 5000
15 | CC(C)c1cccc2c1CC(=O)NS(=O)(=O)N1CCCC(C1)N(C)CCOc1cc-2ccn1 (stereo not shown) [Example 45, 17-methyl-6-(propan-2-yl)-20-oxa-11λ^6-thia-10,12,17,22-tetraaza-tetracyclo[19.3.1.1^12,16.0^2,7]hexacosa-1(24),2(7),3,5,21(25),22-hexaene-9,11,11-trione] |  | 1000 to 5000
16 | Cc1nn2c(C)c1S(=O)(=O)NC(=O)Cc1c(cc(F)cc1C(C)C)-c1ccnc(c1)OCC2(C)C [Example 23] |  | 5000 to 10000
17 | CC(C)c1cc(F)cc2c1CC(=O)NS(=O)(=O)c1nn(c(C(=O)N3CCN(C)CC3)c1F)C(C)(C)COc1cc-2ccn1 [Example 54, 4,13-difluoro-6-isopropyl-16,16-dimethyl-14-(4-methylpiperazine-1-carbonyl)-11,11-dioxo-18-oxa-11λ^6-thia-10,15,20,24-tetrazatetracyclo[17.3.1.1^12,15.0^2,7]-tetracosa-1(23),2(7),3,5,12(24),13,19,21-octaen-9-one] |  | 500 to 1000
18 | CC(C)c1cc(F)cc2c1CC(=O)NS(=O)(=O)c1nn(c(CN3CCN(C)CC3)c1F)C(C)(C)COc1cc-2ccn1 [Example 53, 4,13-difluoro-6-isopropyl-16,16-dimethyl-14-[(4-methylpiperazin-1-yl)-methyl]-11,11-dioxo-18-oxa-11λ^6-thia-10,15,20,24-tetrazatetracyclo[17.3.1.1^12,15.0^2,7]-tetracosa-1(23),2(7),3,5,12(24),13,19,21-octaen-9-one] |  | ≤ 100
19 | CC(C)c1cc(F)cc2c1CC(=O)NS(=O)(=O)c1nn(c(CN3CCOCC3)c1F)C(C)(C)COc1cc-2ccn1 [Example 55, 4,13-difluoro-6-isopropyl-16,16-dimethyl-14-(morpholinomethyl)-11,11-dioxo-18-oxa-11λ^6-thia-10,15,20,24-tetrazatetracyclo[17.3.1.1^12,15.0^2,7]tetracosa-1(23),2(7),3,5,12(24),13,19,21-octaen-9-one] |  | 100 to 500
20 | CC(C)c1cccc2c1CC(=O)NS(=O)(=O)c1cccc(c1)CCOc1cc-2ccn1 [Example 7] |  | 1000 to 5000
21 | CC(C)c1cc(F)cc2c1CC(=O)NS(=O)(=O)c1nn(cc1F)CCOc1cc-2ccn1 [Example 14] |  | 1000 to 5000
22 | CC(C)c1cc(F)cc2c1CC(=O)NS(=O)(=O)c1cc(ccc1F)CCOc1cc-2ccn1 [Example 26] |  | 1000 to 5000
23 | CC1(C)COc2cc(ccn2)-c2ccc3c(c2CC(=O)NS(=O)(=O)c2nn1cc2F)CCC3 [Example 6, 16-fluoro-19,19-dimethyl-21-oxa-14λ^6-thia-13,18,23,27-tetraazapentacyclo[20.3.1.1^15,18.0^2,10.0^5,9]heptacosa-1(25),2,4,9,15(27),16,22(26),23-octaene-12,14,14-trione] |  | 5000 to 10000
24 | CC(C)c1cccc2c1CC(=O)NS(=O)(=O)c1nn(cc1F)CCOc1cc-2ccn1 [Example 8] |  | 1000 to 5000
